Entries after “also recorded” stand apart in the source; their conditions may differ. Marks after values point to notes of the source that are not given here. Square brackets hold non-standard residues; d marks the D form. Ends that are not written are not given here. pS = N[C@@H](COP(=O)(O)O)C(=O)O
How the values were obtained:
[1] = Chitosan encapsulation rate, ELISA of remaining unencapsulated protein or peptide; assay type: physicochemical; conditions: encapsulation in chitosan nanoparticles
Excerpt: Based on the optimized parameters for construction of chitosan micro- and nanoparticles, AEP was mixed directly with the chitosan solution. Chitosan micro- and nanoparticles were constructed, as described above, and the particles were characterized through Zeta sizing and SEM. Reverse Phase-High Performance Liquid Chromatography (RP-HPLC) and/or enzyme-linked immunosorbent assay (ELISA) was used to determine the degree of encapsulation by measuring the amount of free peptides, before and after the encapsulation procedure. Chitosan encapsulation of histatin 5, DR-9, RR-14 and bovine serum albumin was carried out to determine the chitosan encapsulation rate. ELISA assay assessed the remaining unencapsulated protein or peptide.

[2] = Enamel demineralization protection by constructed peptides: calcium and phosphate released from enamel (Example 1); design: species or system human; conditions: for Mean Ca Conc. (calcium released from human enamel) / Mean PO4 Conc. (phosphate released from human enamel): 1 mg/mL peptide 2 hours 37° C., then demineralization solution pH 4.5, 37° C., 12 days, mean ± SD; for Enamel demineralization protection / mineral loss (in words): versus distilled water control and other groups, ANOVA, Tukey
Excerpt: Enamel sample preparation was done as previously described (Siqueira et. al. 2010, J Dent Res. 2010; 89: 626-630, the relevant contents of which are incorporated herein by reference). Briefly, human permanent first molars without defects were cleaned, rinsed, and sectioned. After having the roots removed, the crowns were sliced sagittally into 4 sections (each with a 300 μm thickness) using a diamond saw, followed by grinding to a thickness of 150 μm using sandpaper. Each specimen was coated with a layer of light-cured dental adhesive (3M ESPE Scotchbond™ Universal) and nail varnish, excluding an untouched 2 mm window on the natural surface enamel. Each specimen was submerged in 1 mg/mL construct peptide solution or distilled water (control group) and incubated for 2 hours at 37° C. After this period, the samples were then submerged in 1 mL of demineralization solution (0.05M acetic acid; 2.2 mM CaCl2; 2.2 mM NaH2PO4; pH 4.5) at 37° C. for 12 days. Afterward, they were rinsed thoroughly with distilled water and dried with filter paper to remove any remaining acid residue. The remaining 1 mL of acidic solution was used to assess the calcium and phosphate concentration released from enamel during the demineralization process. The calcium concentration of the solution was assessed using a quantitative colorimetric calcium determination assay (QuantiChrom™ Calcium Assay Kit, Bioassay Systems, Hayward, Calif., USA) with a UV-visible spectrophotometer to determine the optical density at a wavelength of 612 nm. The phosphate concentration was assessed using a colorimetric assay (PiColorLock™ Gold Detection System, Innova Biosciences, Cambridge, U.K.) and UV-visible spectrophotometer, to determine the optical density at a wavelength of 635 nm. All samples were analyzed in duplicate. Statistical analysis was performed with ANOVA and the Tukey Range Test.

[3] = all studied concentrations, compared to other native statherin peptides; p<0.05; cited from earlier work
[4] = Enamel demineralization with chitosan nanoparticle coatings: calcium and phosphate released from enamel (Table 3); design: species or system human; conditions: for demineralization / acid protection (in words): coated enamel vs not coated control, pH 4.5, 12 days
Protocol: Demineralization studies are conducted using thin sections of human enamel. Enamel minerals were analyzed using microradiography. To determine the influence of selected chitosan encapsulated salivary proteins on enamel demineralization, resin-coated enamel sections were first exposed to solutions containing chitosan encapsulated salivary proteins at a concentration of 1.0 mg/ml for 2 h at 37° C. To mimic the acidic environment of dental caries, chitosan encapsulated salivary proteins and control sections were placed into individual tubes with 3 ml of a demineralization solution containing 2.2 mM CaCl2, 2.2 mM NaH2PO4, 5 mM acetic acid, a pH 4.5. The sample was incubated at 37° C. with gentle agitation for a period of 12 days. All solutions contained 3 mM sodium azide as a bacteriostatic agent. Immediately after the demineralization period, the specimens were extensively washed with distilled water and dried with filter paper. Mineral loss was evaluated by comparing the microradiography taken before and after exposure to the acidic conditions. Enamel pieces were prepared as described and coated with chitosan nanoparticles, DR-9 encapsulated in chitosan nanoparticles, DR-9, and 0.05% NaF (gold standard group). In some groups, parotid saliva was allowed to adsorb first on enamel species to mimic the AEP (Table 3). Adsorption was allowed to proceed for a period of 2 hours at 37° C. with gentle agitation. Enamel specimens were then washed with distilled water and immersed in a demineralization solution, pH 4.5 for 12 days. This solution was used to measure the amount of calcium and phosphate released from enamel.

[5] = Inhibition of spontaneous precipitation of supersaturated calcium phosphate solutions (Alizarin Red S, 570 nm); conditions: all test concentrations, compared to a group without any inhibitor; FIG. 4
Protocol: To investigate the ability of the chitosan encapsulated AEP proteins/peptides to prevent crystal growth, microtiter plates were coated with proteins/peptides in a HEPES buffer at RT for 1 h. The wells were washed followed by the addition of a solution containing phosphate (15 mM; pH 7.4), NaCl (150 mM) and CaCl2 (50 mM). The solutions were incubated for 4 h at room temperature, allowing the formation of hydroxyapatite crystals. After this period, the solution was removed, 5% Alizarin Red S (pH 4.2), was added, followed by cerylpyridinium chloride. Crystal production was analyzed spectrophotometrically at 570 nm.

[6] = adsorbed for 2 hrs at 37° C., demineralization solution pH 4.5 for 12 days, n = 10

Compound | Encapsulation Efficiency [1] [%] | Mean Ca Conc. (calcium released from human enamel) [2] | Mean PO4 Conc. (phosphate released from human enamel) [2] | Enamel demineralization protection / mineral loss (in words) [2] | further results
RKFHEKHHSHRGYR [RR-14] | 93.1 |  |  |  | 
DSpSpEEKFLR (D[pS][pS]EEKFLR) [DR9] | 75.5 | 1.455 ± 2.13^B, C mM | 0.849 ± 1.80^B, C mM |  | hydroxyapatite growth inhibition [3]: significant effect; demineralization / acid protection (in words) [4]: intermediary level of demineralization protection; inhibition of calcium phosphate crystal growth [5]: statistically significant inhibition of calcium phosphate crystal growth
Histatin 5 | 82.9 |  |  |  | 
DSpSpEEKFLRVPLSLRKFHEKHHSHRGYR (D[pS][pS]EEKFLRVPLSLRKFHEKHHSHRGYR) [DR9-VPLSL-RR14] |  | 4.106 ± 2.13^A mM | 3.159 ± 1.85^A mM | did not provide any increased demineralization protection over the control | 
DSpSpEEKFLRDSpSpEEKFLR (D[pS][pS]EEKFLRD[pS][pS]EEKFLR) [DR9-DR9] |  | 0.581 ± 0.16^C mM | 0.514 ± 0.18^C mM | lowest mineral loss; also recorded: amplified by DR9-DR9 when compared to single DR9 or statherin | 
DSpSpEEKFLRVPAGLRKFHEKHHSHRGYR (D[pS][pS]EEKFLRVPAGLRKFHEKHHSHRGYR) [DR9-VPAGL-RR14] |  | 4.755 ± 1.35^A mM | 3.917 ± 0.82^A mM | did not provide any increased demineralization protection over the control | 
Bovine Serum Albumin: model protein for chitosan encapsulation | 88.3 |  |  |  | 
[F-].[Na+] [NaF] |  |  |  |  | Calcium released from enamel [4, 6]: 0.30 ± 0.13 ^b mM; Phosphate released from enamel [4, 6]: 0.17 ± 0.06 ^b mM; demineralization / acid protection (in words) [4]: better acid protection
DSpSpEEKFLRRKFHEKHHSHRGYR (D[pS][pS]EEKFLRRKFHEKHHSHRGYR) [DR9-RR14] |  | 3.132 ± 2.46^B mM | 2.282 ± 2.01^B mM | intermediate value among the groups; also recorded: able to maintain the biological function of one of the precursor proteins, statherin | 
DSpSpEEKFLRRIGRFGYGYGPYQPVPEQPLYPQPYQPQYQQYTF (D[pS][pS]EEKFLRRIGRFGYGYGPYQPVPEQPLYPQPYQPQYQQYTF) [Statherin] |  | 1.117 ± 1.29^B, C mM | 0.681 ± 1.11^B, C mM |  | 
